US8957000B2, “Use of sarmentine and its analogs for controlling plant pests” (Marrone Bio Innovations, Inc., priority 2009, dated 2015)
Read-outs that look alike come from different tables or passages of the source.

Experiments:
[1] = test system: Barnyard grass (Echinochloa crusgalli L.); test: Herbicidal activity, foliar spraying (spectrum and SAR study); format: in vivo; details: for pest or weed control at 5000 µg/mL: Echinochloa crus-galli, 72 h, read-out: Efficacy of phytotoxic activity; for pest or weed control at 5000 µg/mL / Efficacy of phytotoxic activity: at least 3 days after spraying
Excerpt: (§1) All weed, sedge and crop seedlings were planted in 8 cm×8 cm×7.2 cm or 10 cm×10 cm×9 cm plastic pots. Seedlings including pigweed (Amaranthus retroflexus, L.), barnyard grass (Echinochloa crusgalli L.), bindweed (Convolvulus arvensis L.), crabgrass (Digitaria sanguinalis L.), dandelion (Taraxacum officinale F.), lambsquarters (Chenopodium album L.), bluegrass (Poa annua L.), wild mustard (Brassica kaber L.), black nightshade (Solanum nigrum L.), curly dock (Rumex crispus L.), horseweed (Conyza Canadensis L.), sweet corn (Zea may S.) and wheat PR 1404 (Triticum aestivum L.) were planted in Super Soil potting soil. Seedlings including rice M-104 (Oryza saliva L.), sedge (Cyperus difformis L.) and sprangletop (Leptochloa fascicularis Lam) were planted in mud which was collected from rice field (Woodland, Calif., USA). When treated, all seedlings were 15 days old except for rice (10 days), wheat (20 days), corn (20 days) sprangletop (20 days old), sedge (20 days old) and horse weed (70 days old).
(§2) Herbicidal activity of the active compound and synthesized compounds was evaluated by foliar spraying. Spraying carrier solution contained 2% ethanol, 0.2% glycosperse O-20 and 0.1% sodium lauryl sulfate. Freshly made solution with the evaluated compound at a concentration of 5 mg/mL was used. In the spectrum study, spraying volume was dependent on the foliar surface area, ranging from approximately 1 to 3 mL/pot plants. One or two pots of plants were treated for each. Number of pots was dependent on both foliar area and availability. In the structure-activity relationship study, one pot of barnyard grass was used and the spraying volume of each compound was 3 mL of 5 mg/mL.
(§3) The optimal concentration of sarmentine was 5 mg/mL for excellent control of barnyard grass (Figure 2). Therefore, such a concentration was subjected to herbicidal spectrum study. Due to the hydrophobic property of sarmentine, a carrier solution containing 0.2% glycosperse O-20, 2% ethanol and 0.1% sodium lauryl sulfate was used. Although this solution contains a high concentration of surfactants, sarmentine can stay suspended in this solution no more than 15 min. Therefore, sarmentine was made freshly just before spraying.

plants = test: Symptom of phytotoxic activity after spraying; format: in vivo; details: sarmentine solution
Description: as §2
Sarmentine is a contact phytotoxic compound. When plants were treated with sarmentine solution, slightly black tiny spots would first show on the leaves and then became bigger and bigger until they covered the whole leaves, especially obvious on the barnyard grass. […] This symptom was observed very similarly to that of middle-chain fatty acids such as decanoic acid (21, Table 4) and 2E-decenoic acid (22, Table 3) during the SAR study.

[2] = Suspension of sarmentine in spraying carrier solution; format: physicochemical; details: 0.2% glycosperse O-20, 2% ethanol and 0.1% sodium lauryl sulfate
Description: as §3

[3] = test system: Pigweed (Amaranthus retroflexus, L.); test: Herbicidal spectrum, foliar spraying; format: in vivo; details: foliar spray 5 mg/mL
Excerpt: as §1, §2, §3

Bluegrass (Poa annua L.) = test: Herbicidal spectrum, foliar spraying; format: in vivo; details: foliar spray 5 mg/mL
Excerpt: as §1, §2, §3

[4] = test system: Bindweed (Convolvulus arvensis, L.); test: Herbicidal spectrum, foliar spraying; format: in vivo; details: foliar spray 5 mg/mL
Excerpt: as §1, §2, §3

[5] = test system: Black nightshade (Solanum nigrum L.); test: Herbicidal spectrum, foliar spraying; format: in vivo; details: foliar spray 5 mg/mL
Excerpt: as §1, §2, §3

[6] = test system: Wild mustard (Brassica kaber L.); test: Herbicidal spectrum, foliar spraying; format: in vivo; details: foliar spray 5 mg/mL
Excerpt: as §1, §2, §3

[7] = test system: Rice (M 104) (Oryza saliva L); test: Herbicidal spectrum, foliar spraying; format: in vivo; details: foliar spray 5 mg/mL
Excerpt: as §1, §2, §3

[8] = test system: Horse weed (Conyza Canadensis L.); test: Herbicidal spectrum, foliar spraying; format: in vivo; details: foliar spray 5 mg/mL
Excerpt: as §1, §2, §3

[9] = test system: Lambsquarters (Chenopodium album L.); test: Herbicidal spectrum, foliar spraying; format: in vivo; details: foliar spray 5 mg/mL
Excerpt: as §1, §2, §3

[10] = test system: Crabgrass (Digitaria sanguinalis L.); test: Herbicidal spectrum, foliar spraying; format: in vivo; details: foliar spray 5 mg/mL
Excerpt: as §1, §2, §3

[11] = test system: Sedge (Cyperus difformis L.); test: Herbicidal spectrum, foliar spraying; format: in vivo; details: foliar spray 5 mg/mL
Excerpt: as §1, §2, §3

[12] = test system: Wheat (PR 1404) (Triticum aestivum L.); test: Herbicidal spectrum, foliar spraying; format: in vivo; details: foliar spray 5 mg/mL
Excerpt: as §1, §2, §3

[13] = test system: Dandelion (Taraxacum officinale F.); test: Herbicidal spectrum, foliar spraying; format: in vivo; details: foliar spray 5 mg/mL
Excerpt: as §1, §2, §3

[14] = test system: Sprangletop (Leptochloa fascicularis Lam.); test: Herbicidal spectrum, foliar spraying; format: in vivo; details: foliar spray 5 mg/mL
Excerpt: as §1, §2, §3

[15] = test system: Curly dock (Rumex crispus L.); test: Herbicidal spectrum, foliar spraying; format: in vivo; details: foliar spray 5 mg/mL
Excerpt: as §1, §2, §3

Sweet corn (Zea mays S.) = test: Herbicidal spectrum, foliar spraying; format: in vivo; details: foliar spray 5 mg/mL
Excerpt: as §1, §2, §3

[16] = SAR study, one pot of barnyard grass, foliar spray 3 mL of 5 mg/mL
[17] = SAR study, barnyard grass, foliar spray 3 mL of 5 mg/mL
[18] = 15 days old, 1 to 3 mL/pot, at least 3 days after spraying
[19] = 20 days old, 1 to 3 mL/pot, at least 3 days after spraying

CCCCC/C=C\C=C\C(=O)OCC [No 3]
pest or weed control at 5000 µg/mL [1, 16]: < 20%

CCCCCCCCCC(=O)NC1CCCC1 [No 4, N-Cyclopentyldecanamide]
pest or weed control at 5000 µg/mL [1, 16]: < 20%

CCCCC/C=C\C=C\C(=O)NC1CCCC1 [No 6, N-Cyclopentyl 2E,4Z-decadienamide]
pest or weed control at 5000 µg/mL [1, 16]: < 20%

O=C(/C=C/c1ccccc1)NC1CCCC1 [No 7, N-Cyclopentylcinnamamide]
pest or weed control at 5000 µg/mL [1, 16]: < 20%

CCCCCCCCCC(=O)N1CCCC1 [No 8, N-(Decanoyl)pyrrolidine]
pest or weed control at 5000 µg/mL [1, 16]: 80 to 100%
Phytotoxic activity relative to sarmentine / toxicity to barnyard grass (in words) [1, 17]: remained the same

CCCCCCC/C=C/C(=O)N1CCCC1 [No 9, N-(Decenoyl)pyrrolidine]
pest or weed control at 5000 µg/mL [1, 16]: 80 to 100%
Phytotoxic activity relative to sarmentine / toxicity to barnyard grass (in words) [1, 17]: remained the same

CCCCC/C=C\C=C\C(=O)N1CCCC1 [No 10, (2E,4Z-Decadienoyl)pyrrolidine]
pest or weed control at 5000 µg/mL [1, 16]: 80 to 100%
Phytotoxic activity relative to sarmentine / toxicity to barnyard grass (in words) [1, 17]: remained the same

O=C(/C=C/c1ccccc1)N1CCCC1 [No 11, N-(trans-Cinnamoyl)pyrrolidine]
pest or weed control at 5000 µg/mL [1, 16]: 80 to 100%
Phytotoxic activity relative to sarmentine / toxicity to barnyard grass (in words) [1, 17]: remained the same

CCCCCCCCCC(=O)N1CCCCC1 [No 12, N-(Decanoyl)piperidine]
pest or weed control at 5000 µg/mL [1, 16]: 80 to 100%
Phytotoxic activity relative to sarmentine / toxicity to barnyard grass (in words) [1, 17]: remained the same

CCCCCCC/C=C/C(=O)N1CCCCC1 [No 13, N-(Decenoyl)piperidine]
pest or weed control at 5000 µg/mL [1, 16]: 80 to 100%

CCCCC/C=C\C=C\C(=O)N1CCCCC1 [No 14, (2E,4Z-Decadienoyl)piperidine]
pest or weed control at 5000 µg/mL [1, 16]: 80 to 100%

O=C(/C=C/c1ccccc1)N1CCCCC1 [No 15, N-(trans-Cinnamoyl)piperidine]
pest or weed control at 5000 µg/mL [1, 16]: 40 to 60%

CCCCCCCCCC(=O)N1CCCCCC1 [No 16, N-(Decanoyl)hexamethyleneimine]
pest or weed control at 5000 µg/mL [1, 16]: 80 to 100%
Phytotoxic activity relative to sarmentine / toxicity to barnyard grass (in words) [1, 17]: remained the same

CCCCCCC/C=C/C(=O)N1CCCCCC1 [No 17, N-(Decenoyl)hexamethyleneimine]
pest or weed control at 5000 µg/mL [1, 16]: 80 to 100%

CCCCC/C=C\C=C\C(=O)N1CCCCCC1 [No 18, (2E,4Z-Decadienoyl)hexamethleneimine]
pest or weed control at 5000 µg/mL [1, 16]: 80 to 100%

O=C(/C=C/c1ccccc1)N1CCCCCC1 [No 19, N-(trans-Cinnamoyl) hexamethleneimine]
pest or weed control at 5000 µg/mL [1, 16]: < 20%

O=C(O)/C=C/c1ccccc1 [No 20, trans-cinnamic acid, reference compound]
pest or weed control at 5000 µg/mL [1, 16]: 60 to 80%
Phytotoxic activity relative to sarmentine / toxicity to barnyard grass (in words) [1, 17]: very active

CCCCCCCCCC(=O)O [No 21, decanoic acid]
pest or weed control at 5000 µg/mL [1, 16]: 80 to 100%
Phytotoxic activity relative to sarmentine / toxicity to barnyard grass (in words) [1, 17]: very active

CCCCCCC/C=C/C(=O)O [No 22, 2E-decenoic acid]
pest or weed control at 5000 µg/mL [1, 16]: 80 to 100%
Phytotoxic activity relative to sarmentine / toxicity to barnyard grass (in words) [1, 17]: very active

NC1CCCC1 [No 23, cyclopentylamine, reference compound]
Phytotoxic activity relative to sarmentine / toxicity to barnyard grass (in words) [1, 17]: non toxic
Efficacy of phytotoxic activity [1, 16]: I

C1CCNCC1 [No 25, piperidine, reference compound]
Phytotoxic activity relative to sarmentine / toxicity to barnyard grass (in words) [1, 17]: non toxic
Efficacy of phytotoxic activity [1, 16]: I

C1CCCNCC1 [No 26, hexamethyleneimine, reference compound]
Phytotoxic activity relative to sarmentine / toxicity to barnyard grass (in words) [1, 17]: non toxic
Efficacy of phytotoxic activity [1, 16]: I

CCCCC/C=C/C=C/C(=O)N1CCCC1 [sarmentine, N-(2E,4E-Decadienoyl) pyrrolidine]
Time after spraying within which predominant phytotoxic activity happened (plants): ≤ 48 h
Time sarmentine can stay suspended in carrier solution [2]: no more than 15 min
Efficacy of phytotoxic activity [3, 18]: VI (VI (80-100%))
Phytotoxic activity (in words) [3]: highly phytotoxic activity
Phytotoxic activity (in words) (Bluegrass (Poa annua L.); blue grass): highly phytotoxic activity
Efficacy of phytotoxic activity (Bluegrass (Poa annua L.); bluegrass, 15 days old, 1 to 3 mL/pot, at least 3 days after spraying): VI (VI (80-100%))
Efficacy of phytotoxic activity [4, 18]: VI (VI (80-100%))
Phytotoxic activity (in words) [4]: highly phytotoxic activity
Efficacy of phytotoxic activity [5, 18]: VI (VI (80-100%))
Phytotoxic activity (in words) [5]: highly phytotoxic activity
Efficacy of phytotoxic activity [6, 18]: VI (VI (80-100%))
Phytotoxic activity (in words) [6]: highly phytotoxic activity
Efficacy of phytotoxic activity ([7]; rice M-104, 10 days old, 1 to 3 mL/pot, at least 3 days after spraying): I
Phytotoxic activity (in words) ([7]; rice plants, after 10 days): No visible phytotoxic activity
Efficacy of phytotoxic activity ([8]; horse weed, 70 days old, 1 to 3 mL/pot, at least 3 days after spraying): II (II (<20%))
Phytotoxic activity (in words) ([8]; horseweed (70-day-old)): Slightly phytotoxic activity
Efficacy of phytotoxic activity [9, 18]: VI (VI (80-100%))
Phytotoxic activity (in words) [9]: highly phytotoxic activity
Efficacy of phytotoxic activity [10, 18]: VI (VI (80-100%))
Phytotoxic activity (in words) [10]: highly phytotoxic activity
Efficacy of phytotoxic activity [11, 19]: III (III (20-40%))
Phytotoxic activity (in words) [11]: Slightly phytotoxic activity
Efficacy of phytotoxic activity ([12]; wheat PR 1404, 20 days old, 1 to 3 mL/pot, at least 3 days after spraying): VI (VI (80-100%))
Phytotoxic activity (in words) ([12]; wheat): highly phytotoxic activity
Efficacy of phytotoxic activity [13, 18]: VI (VI (80-100%))
Phytotoxic activity (in words) [13]: highly phytotoxic activity
Efficacy of phytotoxic activity [14, 19]: VI (VI (80-100%))
Phytotoxic activity (in words) [14]: highly phytotoxic activity
Efficacy of phytotoxic activity [15, 18]: VI (VI (80-100%))
Phytotoxic activity (in words) [15]: highly phytotoxic activity
Efficacy of phytotoxic activity (Sweet corn (Zea mays S.); [19]): VI (VI (80-100%))
Phytotoxic activity (in words) (Sweet corn (Zea mays S.)): highly phytotoxic activity
pest or weed control at 5000 µg/mL ([1]; spectrum study, barnyard grass, 15 days old, foliar spray 5 mg/mL, 1 to 3 mL/pot): 80 to 100%
Efficacy of phytotoxic activity [1, 16]: VI (VI (80-100%))
Optimal concentration for excellent control of barnyard grass ([1]; foliar spraying, Figure 2): 5 mg/mL
Phytotoxic activity (in words) ([1]; spectrum study, barnyard grass, foliar spray 5 mg/mL): highly phytotoxic activity

pyrrolidine [No 24, reference compound]
Phytotoxic activity relative to sarmentine / toxicity to barnyard grass (in words) [1, 17]: non toxic
Efficacy of phytotoxic activity [1, 16]: I
